From US20070248629A1, “PHARMACEUTICAL FORMULATIONS FOR IONTOPHORETIC DRUG DELIVERY” (priority 2006, published 2007)
≈ marks a conversion by molar mass, not a printed value.

Columns and labels:
physchem [1] = details: pH 11
Excerpt: (§1) Essentially the same values are obtained from the propylene glycol/water formulations. […] The observed pH of the 88% neutralized solutions is weakly affected by the cosolvent to water ratio.

[2] = pH 7; cited from earlier work
physchem [3] = experiment: physchem
[4] = Soluble acyclovir in acyclovir sodium gels by centrifugation and HPLC; details: for soluble species contributing to soluble acyclovir: 88 mole % sodium hydroxide, based on base charge / calculated by difference
Excerpt: The presence or absence of a pellet was noted and an aliquot of the supernatant was removed for dilution and analysis by HPLC.
as §1

[5] = Solubility of acyclovir and sodium acyclovir in water and cosolvent mixtures; details: propylene glycol/water solution, aqueous with cosolvent or surfactant or cyclodextrin

SMILES	pKa (physchem [1])	solubility in water [2]	solubility (physchem [3]; pH 7, aqueous with cosolvent or surfactant or cyclodextrin)	soluble species contributing to soluble acyclovir ([4]; glycerin solutions, listed as neutral acyclovir)	soluble acyclovir (total) ([4]; partial neutralization (88 mole % sodium hydroxide), glycerin solutions)	solubility [5]	solubility (physchem [3]; water)	soluble species contributing to soluble acyclovir ([4]; glycerin solutions)	solubility in gels with complete neutralization ([4]; 105 and 116 mole % sodium hydroxide)
Nc1nc2c(ncn2COCCO)c(=O)[nH]1 [acyclovir]	9.8	1300 µg/mL (≈ 5.77 mM)	3000 µg/mL (≈ 13.3 mM)	0.3%	5.3%	3000 µg/mL (≈ 13.3 mM)	–	–	–
Nc1nc2c(ncn2COCCO)c(=O)[nH]1 [sodium acyclovir]	–	–	–	–	–	–	> 100000 µg/mL	5.0%	greater than 5.7 weight percent
